Test results reported in patent publication US8030354B2, “Substituted biphenyl GPR40 modulators” (Amgen Inc., priority 2007, dated 2011).

Tests used:
GPR40 [1] = target: T1, GPR40 (Homo sapiens, UniProt O14842); assay: Inositol phosphate accumulation assay (A9_GPR40 cells); format: cell-based; parameters: expressed in transfected cells; host or cells: CHO cells stably transfected with GPR40 and aequorin; details: inositol phosphate assay, A9_GPR40 cells, 1 hour; read-out: IP3 EC50
Summary of the method: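 A9 cells stably expressing GPR40 were labelled 16 h with 1 μCi/mL ^3H-inositol in inositol-free DMEM with dialysed FBS. Compounds in HBSS/10 mM LiCl with HSA were applied for 1 h at 37° C, then quenched with 20 mM formic acid. Accumulated [^3H] inositol phosphates were counted by SPA.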

GPR40 [2] = target: T1, GPR40; assay: Cell-based aequorin assay (CHO cells stably expressing GPR40 and aequorin); parameters: expressed in transfected cells; host or cells: CHO cells stably transfected with GPR40 and aequorin; details: activation of human GPR40, CHO cells, 0.01% HSA
Summary of the method: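 CHO cells stably co-expressing GPR40 and aequorin, loaded with coelenterazine (1 ug/mL, 2 h, room temperature) in H/HBSS with 20 mM Hepes and 0.01% fatty acid-free HSA. Serially diluted compounds added; luminescence recorded over 20 s. EC50 from dose-response of maximum relative light units.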

T1 sequence (O14842 whole entry): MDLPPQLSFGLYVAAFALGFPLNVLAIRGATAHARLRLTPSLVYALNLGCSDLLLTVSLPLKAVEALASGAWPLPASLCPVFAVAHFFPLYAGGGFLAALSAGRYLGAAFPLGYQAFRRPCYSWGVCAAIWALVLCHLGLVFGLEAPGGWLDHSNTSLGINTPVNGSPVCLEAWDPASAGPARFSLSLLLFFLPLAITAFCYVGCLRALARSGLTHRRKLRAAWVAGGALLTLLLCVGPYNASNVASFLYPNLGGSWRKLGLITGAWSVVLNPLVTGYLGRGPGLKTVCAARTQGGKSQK

SMILES	EC50 (GPR40 [1]) [nM]	EC50 (GPR40 [2]) [nM]
COc1ccc(F)c(-c2ccc(COc3cccc(C(CC(=O)O)CC4CC4)c3)cc2N2CCCCCC2)c1 (single isomer, unassigned) [Example 69.29, (3R)-3-(3-(((2-(1-Azepanyl)-2′-fluoro-5′-(methyloxy)-1,1′-biphenyl-4-yl)methyl)oxy)phenyl)-4-cyclopropylbutanoic acid or (3S)-3-(3-(((2-(1-azepanyl)-2′-fluoro-5′-(methyloxy)-1,1′-biphenyl-4-yl)methyl)oxy)phenyl)-4-cyclopropylbutanoic acid]	100 to 1000	100 to 1000
COc1ccc(F)c(-c2cc(F)c(COc3cccc(C(CC(=O)O)CC4CC4)c3)cc2C2=CCCC2(C)C)c1 (single isomer, unassigned) [Example 69.30, (3R)-4-cyclopropyl-3-(3-(((2-(5,5-dimethyl-1-cyclopenten-1-yl)-2′,5-difluoro-5′-(methyloxy)-1,1′-biphenyl-4-yl)methyl)oxy)phenyl)butanoic acid or (3S)-4-cyclopropyl-3-(3-(((2-(5,5-dimethyl-1-cyclopenten-1-yl)-2′,5-difluoro-5′-(methyloxy)-1,1′-biphenyl-4-yl)methyl)oxy)phenyl)butanoic acid]	< 10	100 to 1000
COc1ccc(F)c(-c2ccc(COc3cccc([C@@H](CC(=O)O)CC4CC4)c3)cc2C2=CC(C)(C)CC(C)(C)C2)c1 (single isomer, unassigned) [Example 69.31, (3R)-4-Cyclopropyl-3-(3-(((2′-fluoro-5′-(methyloxy)-2-(3,3,5,5-tetramethyl-1-cyclohexen-1-yl)-1,1′-biphenyl-4-yl)methyl)oxy)phenyl)butanoic acid or (3S)-4-cyclopropyl-3-(3-(((2′-fluoro-5′-(methyloxy)-2-(3,3,5,5-tetramethyl-1-cyclohexen-1-yl)-1,1′-biphenyl-4-yl)methyl)oxy)phenyl)butanoic acid]	10 to 100	100 to 1000
COc1ccc(F)c(-c2ccc(COc3cccc([C@@H](CC(=O)O)CC4CC4)c3)cc2C2CC(C)(C)CC(C)(C)C2)c1 (single isomer, unassigned) [Example 69.32, (3R)-4-Cyclopropyl-3-(3-(((2′-fluoro-5′-(methyloxy)-2-(3,3,5,5-tetramethylcyclohexyl)-1,1′-biphenyl-4-yl)methyl)oxy)phenyl)butanoic acid or (3S)-4-cyclopropyl-3-(3-(((2′-fluoro-5′-(methyloxy)-2-(3,3,5,5-tetramethylcyclohexyl)-1,1′-biphenyl-4-yl)methyl)oxy)phenyl)butanoic acid]	10 to 100	100 to 1000
COc1ccc(F)c(-c2cc(F)c(COc3cccc(C(CC(=O)O)CC4CC4)c3)cc2C2CCCC2(C)C)c1 (single isomer, unassigned) [Example 69.34]	< 10	100 to 1000

More lines, now with the values ahead:

EC50 (GPR40 [1]) [nM]	EC50 (GPR40 [2]) [nM]	SMILES
10 to 100	100 to 1000	COc1ccc(F)c(-c2ccc(COc3cccc([C@@H](CC(=O)O)CC4CC4)c3)cc2C2CCCC2C)c1 (single isomer, unassigned) [Example 69.33, (3R)-4-Cyclopropyl-3-(3-(((2′-fluoro-2-(2-methylcyclopentyl)-5′-(methyloxy)-1,1′-biphenyl-4-yl)methyl)oxy)phenyl)butanoic acid or (3S)-4-cyclopropyl-3-(3-(((2′-fluoro-2-(2-methylcyclopentyl)-5′-(methyloxy)-1,1′-biphenyl-4-yl)methyl)oxy)phenyl)butanoic acid]
< 10	10 to 100	COc1ccc(F)c(-c2ccc(COc3cccc(C(CC(=O)O)CC4CC4)c3)cc2C(OC)C(C)(C)C)c1 (single isomer, unassigned) [Example 69.35]
< 10	100 to 1000	COc1ccc(F)c(-c2ccc(COc3cccc(C(CC(=O)O)CC4CC4)c3)cc2C2CCCCC2(C)C)c1 (single isomer, unassigned) [Example 69.36]
< 10	100 to 1000	C=CC(C)(C)C(OC)c1cc(COc2cccc(C(CC(=O)O)CC3CC3)c2)ccc1-c1cc(OC)ccc1F (single isomer, unassigned) [Example 69.38]
